Measurements: patent publication US12275795B2, “Binding molecules against BCMA and uses thereof” (NOVARTIS AG, priority 2018, dated 2025)

What was measured:
KMS11-luc cells = test: RTCC assay of bivalent AB3 in combination with GSI (8x8 matrix); type: cell-based, human; conditions: for shift of bivalent AB3 response curves with increasing GSI concentration: combination with bivalent AB3
Text: Human T cells were isolated from peripheral blood of healthy human donors. First, peripheral blood mononuclear cells (PBMCs) were fractionated from donor blood using a Ficoll-Paque PLUS (GE Healthcare #17-1440-02) density gradient. T-cells were then isolated from PBMCs by negative selection according to manufacturer's recommended protocol (Miltenyi #130-096-535). The isolated T-cells were further expanded using Human T-Activator CD3/CD28 Dynabeads (Gibco #11132D) for nine days, then debeaded magnetically and stored as viable frozen aliquots in liquid nitrogen. The expanded T cells were used as effector T cells in RTCC assays where they were thawed from frozen aliquots, counted and used immediately at an Effector:Target (E:T) cell ratio of 3:1.
The target MM cell line KMS11 was transduced to constitutively express luciferase, which was used to measure cell viability/survival. KMS11 cells were pelleted and resuspended in fresh media immediately prior to plating to remove any basal level of shed BCMA that can have been present. 2,500 KMS11-luc target cells in 25 μL TCM were added to wells of 384-well plates. 50 nL of serially diluted bivalent AB3 and GSI solutions (LY411575, PR03084014, and BMS0708163) were acoustically dispensed to corresponding wells of the assay plates. 7,500 expanded T cells, as described above, were added to corresponding wells of assay plate in 20 μL TCM. The assay was incubated at 37° C./5% CO2 for 20 hr, followed by measurement of luciferase activity to indicate target cell viability (BrightGlo, Promega #E2650) following manufacturer's protocols. Target cells only (KMS11) without T cells or antibodies serve as control and represent 100% luciferase activity (100% viability). Data were plotted and analyzed using Spotfire, where EC50 values were calculated using sigmoidal, 4-parameter non-linear regression curve fit.
Data from bivalent AB3 and GSI combinations from Example 11 (FIG. 24) were plotted and analyzed using Spotfire, where EC50 values were calculated using sigmoidal, 4-parameter non-linear regression curve fit.

sBCMA from KMS11 cells = test: Time course of shed BCMA (sBCMA) by ELISA after GSI treatment; type: cell-based, human; conditions: 2 nM LY411575 or 200 nM PF03084014, 42-hr time course
Description: (§1) KMS11 cells were cultured in a 6 well plate at 4×10^6 cells/well in 4 mL of RPMI1640 supplemented with 20% FBS (Gibco #11875-085, Seradigm #1500-500) per well. GSI stock solutions were prepared in DMSO at 10 mM, and added to the cells at final concentrations of 2 nM for LY411575 (Sigma #SML0506) or 200 nM for PF03084014 (Selleckchem #S8018) respectively. Cells were incubated at 37° C./5% CO2, and samples were collected at the following time points: 0, 1, 2, 4, 6, 8, 12, 18, 24, 30 and 42 hr. Collected samples were evaluated for BCMA expression by ELISA and flow cytometry as outline below.
(§2) A pre-treatment study was conducted as above except that KMS11 cells were treated overnight (22 hr) with only LY411575. Cells were washed twice with 3 volumes of growth medium, and re-plated with fresh growth medium without the GSI to the original 4 mL volume. […]
sBCMA levels in supernatants collected and frozen at the various timepoints were determined by ELISA following vendor supplied protocol (R&D Systems #DY193). […] Quantified values as determined by the kit were divided by 5.5 to correct for a molecular mass difference between BCMA-Fc fusion protein used in the kit as a standard curve (32,554.6 Da) and the mass of endogenously shed BCMA extra-cellular domain (5,899.3 Da). […]

mBCMA on KMS11 cells = test: Time course of membrane BCMA (mBCMA) by flow cytometry after GSI treatment; type: cell-based, human; conditions: 2 nM LY411575 or 200 nM PF03084014, 42-hr time course
Description: as §1, §2
For each collected sample, cells were pelleted by centrifugation. […] Samples from all timepoints were analyzed together by flow cytometry on a BD LSR Fortessa instrument. […]
Where receptor density of BCMA was provided, the anti-BCMA antibody binding capacity (ABC) on KMS11 cells was determined using Quantum Simply Cellular beads (Bangs Laboratories #815) following vendor supplied protocol. The ABC is an estimate of the quantity of receptors per cell.

mBCMA in KMS11 xenograft = test: In vivo GSI treatment, membrane BCMA on tumor cells by flow cytometry; parameters: species or system NSG mice; conditions: 150 mg/kg BID for 5 days
Description: On Day 0, KMS11-Luc cells were harvested and suspended in Hanks Balanced Salt Solution (HBSS) and 50% matrigel solution at a concentration of 25×10^6 cells/mL. Female NOD.Cg-Prkdc^scidII2rg^tm1Wji/SzJ mice (NSG mice) at ˜6 weeks old (Jackson Laboratories, ME, USA), were implanted sub-cutaneously (SQ) with 200 μL of the cell suspension to deliver 5×10^6 KMS11-Luc cells SQ in the right flank. Seven days following tumor inoculation, each mouse received an adoptive transfer (AdT) of 10×10^6 of peripheral blood mononuclear cells (PBMCs) in 100 μL via IV injection in the lateral tail vein. The PBMCs were previously isolated from a human leukopak, frozen and stored in Cryostor10 media in vapor phase liquid Nitrogen tank until use. Immediately prior to AdT, PBMCs were thawed and suspended at a concentration of 100×10^6 cells/ml in Hanks Balanced Salt Solution (HBSS). […] To obtain single cell suspensions from excised tumors, the tissues were minced with scissors followed by mechanical homogenization in dissociation buffer containing RPMI (Gibco, Life Technologies) with Liberase™ research grade collagenase (Roche) and DNase I recombinase (Roche) using the GentleMAX (Miltenyi). Following a 5 minute incubation at 37° C. in a water or bead bath, the homogenates were quenched with 10% FBS and filtered on a 70-μM sieve (352350, Falcon). The concentration of single cell suspensions were measured on the Vi-Cell (Beckman Coulter), and cells were pelleted by centrifugation for 5 minutes at 1200 rpm. The supernatants were discarded and cell pellets were resuspended in 400 μL of RPMI (Gibco, Life Technologies). Tumor cells were plated in a volume of 100 μL/well at a cell density of 500,000 to 2 million/well. For cell surface staining, live/dead stain was added to plated samples in DPBS and incubated for 30 minutes. […] All samples were analyzed together by flow cytometry at the completion of the study. […]

[1] = test system: sBCMA in KMS11 xenograft model serum; test: In vivo GSI treatment, shed BCMA in serum by ELISA; parameters: species or system NSG mice; conditions: 150 mg/kg BID for 5 days
Description: sBCMA levels in supernatants collected and frozen at the various timepoints were determined by ELISA following vendor supplied protocol (R&D Systems #DY193). Briefly, recombinant human BCMA-Fc protein was included in the kit, and used to generate a standard curve. Collected samples were assayed and sBCMA concentrations extrapolated from the standard curve. […] The results were plotted in Tibco Spotfire or Graphpad Prism against the concentration of GSI. On Day 0, KMS11-Luc cells were harvested and suspended in Hanks Balanced Salt Solution (HBSS) and 50% matrigel solution at a concentration of 25×10^6 cells/mL. Female NOD.Cg-Prkdc^scidII2rg^tm1Wji/SzJ mice (NSG mice) at ˜6 weeks old (Jackson Laboratories, ME, USA), were implanted sub-cutaneously (SQ) with 200 μL of the cell suspension to deliver 5×10^6 KMS11-Luc cells SQ in the right flank. Seven days following tumor inoculation, each mouse received an adoptive transfer (AdT) of 10×10^6 of peripheral blood mononuclear cells (PBMCs) in 100 μL via IV injection in the lateral tail vein. The PBMCs were previously isolated from a human leukopak, frozen and stored in Cryostor10 media in vapor phase liquid Nitrogen tank until use. Immediately prior to AdT, PBMCs were thawed and suspended at a concentration of 100×10^6 cells/ml in Hanks Balanced Salt Solution (HBSS).

[2] = KMS11-luc, expanded T cells E:T 3:1, 20 hr

Row | Compound | GSI concentration with modest enhancement of bivalent AB3 potency (KMS11-luc cells; [2]) [nM] | GSI concentration with significant enhancement of bivalent AB3 potency (KMS11-luc cells; [2]) [nM] | shift of bivalent AB3 response curves with increasing GSI concentration (KMS11-luc cells) | sBCMA concentration over time (sBCMA from KMS11 cells) | mBCMA levels over time (mBCMA on KMS11 cells) | GSI concentration with no effect on bivalent AB3 activity (KMS11-luc cells; [2]) [pM] | GSI concentration with small effect on bivalent AB3 activity (KMS11-luc cells; [2]) [pM] | increase in mBCMA compared to the vehicle control (mBCMA in KMS11 xenograft) [fold] | mBCMA levels by 24 hours post last dose (mBCMA in KMS11 xenograft) | time point post last dose through which mBCMA increase was sustained (mBCMA in KMS11 xenograft) [h] | sBCMA levels between 24 and 48 hours post last dose [1] | time post last dose for which sBCMA levels were ablated [1]
1 | NC(=O)[C@@H](CCC(F)(F)F)N(Cc1ccc(-c2ncon2)cc1F)S(=O)(=O)c1ccc(Cl)cc1 [BMS-708163, (R)-2-((4-chloro-N-(2-fluoro-4-(1,2,4-oxadiazol-3-yl)benzyl)phenyl)sulfonamido)-5,5,5-trifluoropentanamide] | 8 | ≥ 31 | response curves shifted to the left |  |  |  |  |  |  |  |  | 
2 | C[C@H](NC(=O)[C@@H](O)c1cc(F)cc(F)c1)C(=O)N[C@@H]1C(=O)N(C)c2ccccc2-c2ccccc21 [LY411575, (S)-2-((S)-2-(3,5-difluorophenyl)-2-hydroxyacetamido)-N—((S)-5-methyl-6-oxo-6,7-dihydro-5H-dibenzo[b,d]azepin-7-yl)propanamide] |  | ≥ 0.125 | response curves shifted to the left | no increase over time | increased over time | ≤ 7.8 | 31.2 |  |  |  |  | 
3 | CCC[C@H](N[C@H]1CCc2cc(F)cc(F)c2C1)C(=O)Nc1cn(C(C)(C)CNCC(C)(C)C)cn1 [PF03084014, (S)-2-(((S)-6,8-difluoro-1,2,3,4-tetrahydronaphthalen-2-yl)amino)-N-(1-(2-methyl-1-(neopentylamino)propan-2-yl)-1H-imidazol-4-yl)pentanamide] | 3 | ≥ 12 | response curves shifted to the left | no increase over time | increased over time |  |  | 10 | dropped back to levels similar to those observed for the vehicle control | 7 | returning to levels comparable to those observed for the vehicle treated animals | up to 24 hours
